{
  "source": "patent US11590154B2",
  "about": "“Triple antibiotic fixed-dose combination products, dosing regimen, methods, and kits for treating pulmonary non-tuberculosis mycobacterial infections” (priority 2020, dated 2023)",
  "key": {"[1]": {"test_system": "MAC bacteria", "type": "cell-based, Mycobacterium avium complex", "settings": "2×MIC; starting inoculum 5.5 log10 CFU/ml", "protocol": "In vitro, efficacy was studied in static time-kill kinetics assays (at 2×minimum inhibitory concentration [MIC]), intended to mirror a desired peak serum concentration for all three antibiotics using an established assay. All experiments were performed with a starting inoculum of 5.5 log10 CFU/ml MAC bacteria, higher than the bacterial load expected in the airway secretions of patients with mild nodular-bronchiectatic disease due to MAC."}, "[2]": {"test_system": "MAC", "assay": "MIC of the MAC strains used in the HFS-MAC studies", "type": "cell-based, Mycobacterium avium complex", "settings": "Mycobacterium avium", "protocol": "The MAC strain used in the HFS-MAC studies was ATCC strain 700898. The study center also had 5 well-characterized clinical strains that have undergone whole-genome sequencing and habituation to the HFS-MAC. Stock cultures of MAC were stored at −80° C. in Middlebrook 7H9 broth with 10% OADC and 10% glycerol. THP-1 monocytes were stored in liquid nitrogen and have been habituated for the HFS-MAC growth conditions."}, "[3]": {"test_system": "intracellular MAC in THP-1 monocytes", "assay": "Hollow fiber system model of MAC (HFS-MAC): microbial kill", "type": "cell-based, Mycobacterium avium complex", "settings": "HF experiments", "method": "The anti-mycobacterial effects of CLR, CFZ, and RFB was evaluated in the hollow fiber system model of MAC (HFS-MAC), which recapitulates the intrapulmonary concentrations of these antibiotics. The HFS-MAC allows for an assessment of the contribution of individual drug components in terms of anti-mycobacterial effects and enables exploration of potential synergy, additivity, or antagonism of different doses of drugs and combination regimens on the log-phase growth of intracellular MAC, for both microbial kill and resistance suppression.\nA two-part investigation was conducted to assess the contribution of components of various FDC products comprising CLR, CFZ, and RFB in terms of depth and rate of MAC kill and suppression of the emergence of resistance. The anti-MAC activity of each antibiotic component was evaluated as one-drug alone; as two-drug combinations and the three-drug combination. For each combination (singlet, doublet or triplet), the drug concentrations were sampled from the HF fluid bathing MAC-infected cells. […] Anti-MAC activity was evaluated by kill slopes defined as the kill rate constant (and the half-life of kill [reciprocal of the kill rate constant]) as well as the maximum kill, defined as the maximum reduction in MAC CFUs and compared between the different antibiotic combinations.\nMAC was grown into log-phase for 4 days, parallel with cultivation of THP-1 monocytes. The THP-1 cells were then infected with MAC overnight at a multiplicity of infection of 1:1. The THP-1 cells were washed to remove extracellular bacteria, and 20 mL of 1×10^6 (6.0 log10) cells/mL were inoculated into each HFS-MAC on Study Day 0. The peripheral compartment is the abluminal hollow fibers space that is also enclosed by the plastic, while the intraluminal space and flow path form the central compartment. […]"}, "[4]": {"test_system": "M. avium", "assay": "MIC of antibiotics by broth microdilution, M. avium strains of Examples 3 and 4", "type": "cell-based, Mycobacterium avium subsp. hominissuis", "settings": "7H10 agar plates for tissue CFU counts", "protocol": "Susceptibility testing was conducted using broth microdilution single and twofold dilutions as described in the literature. Suspensions were prepared by swabs on a growth plate with a sterile cotton swab, or were prepared in broth culture. The growth was transferred to a 4.5 mL of phosphate buffer solution (PBS) until the turbidity matched the density of a 0.5 McFarland standard. Suspensions were then vigorously mixed on a vortex mixer for 15 to 20 seconds. The final inoculum was prepared to a bacterial density of 10^5. The tube was inverted 8-10 times to mix the suspension.\nFollowing both the four-week and eight-week treatment period, mice were sacrificed, and lungs and spleens were harvested for CFU counts in each tissue and compared to CFUs recovered in the baseline and vehicle-treated groups. Tissue samples were plated with and without antibiotic on 7H10 agar. Antibiotic plates were made with minimum inhibitory concentrations (MICs) of 8 μg/ml for clarithromycin, and 0.25, μg/ml for both rifabutin (RFB) and clofazimine (CFZ). Plates were made for each of clarithromycin (CLR) alone, clarithromycin plus either rifabutin (CLR+RFB) or clofazimine (CLR+CFZ) and the three-drug combination (CLR+RFB+CFZ). All plates were incubated in a microbiological incubator at 37° C. for 14 days."}, "[5]": {"test_system": "M. avium 104 biofilm", "assay": "In vitro biofilm model of infection", "type": "cell-based, Mycobacterium avium subsp. hominissuis", "settings": "mean ± SD; CLR 1.9-4.3 μg/mL, RFB 0.04 μg/mL, CFZ 0.0005 μg/mL"}, "[6]": {"test_system": "MAC", "assay": "Lung histopathology of mice infected with MAC and treated for four and eight weeks", "type": "in vivo, Mycobacterium avium complex", "settings": "32 sections per group", "description": "Lung and Spleen Histopathology of Mice Infected with MAC and Treated with FDC Components Alone and in Combination for Four and Eight Weeks of Treatment\nEach of the experimental group had eight cut examined from each lung (8×2 lungs=16×2 mice=32 sections). Lungs were normal and not showing any pathology at pre-infection."}, "[7]": {"assay": "7-day mouse tolerability and PK study", "settings": "for Cavg (clofazimine): AUCtlast/24 h; for AUC(0-t): AUCtlast (clofazimine); for AUC(0-t) / Cmax: mouse plasma; for Cmax: Cmax (clofazimine)", "protocol": "Sixty (60) female mice were tested, 12 per treatment groups: […]"}, "[8]": {"assay": "Concentration vs. QTcF analysis of MAP Study data (linear mixed-effects model)", "type": "in vivo, human", "protocol": "A concentration vs. QTcF analysis was performed on a subset of data from the MAP Study where the PK sample was drawn within 1 hour of ECG extraction. The rationale for this window was based primarily on the assumption that at least for the rifabutin and clofazimine components, the long half-life would result in modest fluctuation of concentration over the dosing interval and thus the concentrations used in the analysis would enable fitting of a linear model suitable for prediction of the effect at the maximum concentration for each component (Cmax). Initially, a full model (including clarithromycin, 14-OH-clarithromycin, rifabutin, 25-O-desacetyl-rifabutin, and clofazimine) with random intercept and slopes per subject was fit and an unstructured covariance structure was used. […] Several models were then assessed with the best model retained, where only clofazimine concentration was retained as the drug component predictor of QT response.\nThe relationship between the individually observed clofazimine plasma concentrations and estimated placebo-adjusted ΔQTcF (i.e., ΔΔQTcF) is shown in FIG. 9. The solid line and the dotted line denotes the model-predicted mean ΔΔQTcF with 90% CI. The squares and circles denote the pairs of observed clofazimine plasma concentrations and estimated placebo-adjusted ΔQTcF by subjects for the RHB-104 and placebo treatment groups, respectively. […]"}, "[9]": {"test_system": "NTM", "settings": "mouse models of systemic and lung infection; preclinical literature; cited from earlier work"}, "[10]": {"settings": "cited from earlier work; for airway concentration relative to plasma (ELF:plasma ratio as percent): Dheda et al. 2018"}, "[11]": {"settings": "female, C57BL/6, mouse, plasma, po, 10 mg/kg, Day 1, CFZ 10 mg/kg alone, oral"}, "[12]": {"settings": "female, C57BL/6, mouse, plasma, po, 10 mg/kg, Day 7, CFZ 10 mg/kg alone, oral once daily"}, "[13]": {"settings": "female, C57BL/6, mouse, plasma, po, 30 mg/kg, Day 1, CFZ 30 mg/kg alone, oral"}, "[14]": {"settings": "female, C57BL/6, mouse, plasma, po, 30 mg/kg, Day 7, CFZ 30 mg/kg alone, oral once daily"}, "[15]": {"settings": "female, C57BL/6, mouse, plasma, po, 30 mg/kg, Day 7, CFZ 30 mg/kg with CLR 200 mg/kg and RFB 60 mg/kg, oral once daily"}},
  "note": "Entries after “also recorded” stand apart in the source; their conditions may differ. Like-named read-outs stand apart in the source and are kept apart here.",
  "data": [
    {"smiles": "CC(C)/N=c1\\cc2n(-c3ccc(Cl)cc3)c3ccccc3nc-2cc1Nc1ccc(Cl)cc1", "note": "[Clofazimine, clofazimine]", "values": [
      {"measurement": "activity as single drugs", "setting": "[1]", "result": "bacteriostatic activity"},
      {"measurement": "MIC", "setting": "[2]; Clinical strain #1", "result": 0.25, "unit": "µg/mL"},
      {"measurement": "MIC", "setting": "[2]; Clinical strain #2", "result": 0.25, "unit": "µg/mL"},
      {"measurement": "MIC", "setting": "[2]; Clinical strain #3", "result": 0.25, "unit": "µg/mL"},
      {"measurement": "MIC", "setting": "[2]; Clinical strain #4", "result": 0.25, "unit": "µg/mL"},
      {"measurement": "MIC", "setting": "[2]; Clinical strain #5", "result": 0.25, "unit": "µg/mL"},
      {"measurement": "effect on CFUs / MAC killing, summary", "setting": "[3]", "result": "CFU counts increased"},
      {"measurement": "minimum inhibitory concentrations (MICs) used for antibiotic plates", "setting": "[4]", "result": 0.25, "unit": "µg/mL"},
      {"measurement": "Colony Forming Unit Concentration, Four Days", "setting": "[5]", "result": "1.91 ± 0.6 × 10^7 CFU/mL"},
      {"measurement": "Colony Forming Unit Concentration, Seven Days", "setting": "[5]", "result": "1.42 ± 0.5 × 10^7 CFU/mL"},
      {"measurement": "Lung Histopathology Findings", "setting": "[6]", "result": "Mild diffuse congestion; also recorded: Minimal multi-focus congestion of lymphocytes and plasma cells; also recorded: Granulomas in multiple locations with mild number of bacteria; also recorded: Infiltrates into the bronchiolar walls"},
      {"measurement": "Cavg (clofazimine)", "setting": "[7]; Day 7, CFZ 10 mg/kg alone", "result": 223, "unit": "ng/mL"},
      {"measurement": "Cavg (clofazimine)", "setting": "[7]; Day 7, CFZ 30 mg/kg alone", "result": 411, "unit": "ng/mL"},
      {"measurement": "Cavg (clofazimine)", "setting": "[7]; Day 7, CFZ 30 mg/kg with CLR 200 mg/kg and RFB 60 mg/kg", "result": 829, "unit": "ng/mL"},
      {"measurement": "Tmax", "setting": "[7]; female, C57BL/6, mouse, in vivo, po, 10 mg/kg, tmax (clofazimine)", "result": 4, "unit": "h"},
      {"measurement": "AUC(0-t)", "setting": "[7]; female, C57BL/6, mouse, in vivo, po, 30 mg/kg, Day 1, CFZ 30 mg/kg with CLR 200 mg/kg and RFB 60 mg/kg, oral", "result": 2230, "unit": "ng·h/mL"},
      {"measurement": "AUC(0-t)", "setting": "[7]; [11]", "result": 2150, "unit": "ng·h/mL"},
      {"measurement": "AUC(0-t)", "setting": "[7]; [12]", "result": 5340, "unit": "ng·h/mL"},
      {"measurement": "Cmax", "setting": "[7]; [11]", "result": 108, "unit": "ng/mL"},
      {"measurement": "Cmax", "setting": "[7]; [12]", "result": 277, "unit": "ng/mL"},
      {"measurement": "AUC(0-t)", "setting": "[7]; [13]", "result": 3690, "unit": "ng·h/mL"},
      {"measurement": "AUC(0-t)", "setting": "[7]; [14]", "result": 9870, "unit": "ng·h/mL"},
      {"measurement": "AUC(0-t)", "setting": "[7]; [15]", "result": 19900, "unit": "ng·h/mL"},
      {"measurement": "Cmax", "setting": "[7]; [13]", "result": 181, "unit": "ng/mL"},
      {"measurement": "Cmax", "setting": "[7]; female, C57BL/6, mouse, plasma, po, 30 mg/kg, Day 1, CFZ 30 mg/kg with CLR 200 mg/kg and RFB 60 mg/kg, oral", "result": 152, "unit": "ng/mL"},
      {"measurement": "Cmax", "setting": "[7]; [14]", "result": 460, "unit": "ng/mL"},
      {"measurement": "Cmax", "setting": "[7]; [15]", "result": 957, "unit": "ng/mL"},
      {"measurement": "treatment effect-specific intercept", "setting": "[8]; 90% CI 0.76 to 4.29", "result": 2.52, "unit": "ms"},
      {"measurement": "estimated population slope of the concentration-QTc relationship", "setting": "[8]; clofazimine plasma concentration, RHB-104 MAP Study, 90% CI 0.0337 to 0.0410", "result": 0.037, "unit": "ms per ng/mL"},
      {"measurement": "Effective Dose", "setting": "[9]", "result": 20, "unit": "mg/kg/day"},
      {"measurement": "airway concentration relative to plasma (ELF:plasma ratio as percent)", "setting": "[10]", "result": "approximately 0.19%"},
      {"measurement": "airway concentration relative to plasma (ELF:plasma ratio as percent)", "setting": "[10]; listed as CFZ", "result": "approximately 0.2%"},
      {"measurement": "ELF:plasma ratio", "setting": "[10]; epithelial lining fluid to total plasma/serum", "result": 0.0019},
      {"measurement": "half-life", "setting": "[10]; human, in vivo", "result": "> 100", "unit": "days"}
    ]}
  ]
}
